The source of these data is PubChem BioAssay (NCI).

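Five compound concentrations were applied to cells in 96-well plates for 48 hours; endpoints were derived by simple linear interpolation of the resulting dose-response curve. GI50 = concentration required for 50% inhibition of growth. TGI is the concentration that stops growth completely.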 Where only a bound is given, the exact number is not on record here.

Among the test systems are A498 renal; SF-268 CNS; U251 CNS; IGROV1 ovarian; NCI-H460 lung; UO-31 renal; SF-539 CNS; M14 melanoma; EKVX NSCLC; SW-620 colon.
What all share (assay): NCI tumour cell line growth inhibition, 48 h

For the compound `COC(=O)C1=C(C(=O)OC)C23C=C(C)C1C2=C(C)C1(CC1)[C@@](C)(O)C3=O` (some centres undefined), the GI50 is 0.188 µM in the test on A498 renal; 0.273 µM in the test on SF-268 CNS; 0.311 µM in the test on U251 CNS; 0.275 µM with IGROV1 ovarian; 0.203 µM in the test on NCI-H460 lung; 0.185 µM in the test on UO-31 renal. Also, the GI50 in the test with SF-539 CNS is 0.337 µM; in the test with M14 melanoma, 0.316 µM; with EKVX NSCLC it was 0.615 µM; in the test on SW-620 colon it was 9.14 µM. Further, the TGI in the test on A498 renal is 0.49 µM; in the test with SF-268 CNS it was 3.07 µM; in the test with U251 CNS, > 42.8 µM; in the test with NCI-H460 lung, 1.19 µM; with UO-31 renal, 0.464 µM; with SF-539 CNS, 1.56 µM. For the same compound, the results for the TGI with M14 melanoma, in the test on EKVX NSCLC and in the test on SW-620 colon were 1.46 µM, 5.42 µM and 30.2 µM, respectively.
On to `CCOC(=O)c1cn(Cc2ccccc2)c(=O)n1Cc1ccccc1`, for which the TGI in the test with A498 renal, with SF-268 CNS, in the test on U251 CNS, in the test with IGROV1 ovarian, in the test on NCI-H460 lung and with UO-31 renal was > 100 µM throughout. The TGI in the test on SF-539 CNS, in the test on M14 melanoma, in the test with EKVX NSCLC and with SW-620 colon was > 100 µM throughout.
On to `CN(C)CCCc1c[nH]c2ccccc12`, for which the TGI in the test with A498 renal, with SF-268 CNS, in the test with U251 CNS, in the test on IGROV1 ovarian, in the test on NCI-H460 lung and in the test on UO-31 renal was > 100 µM throughout. Moreover, the TGI in the test with SF-539 CNS, in the test on M14 melanoma, with EKVX NSCLC and in the test with SW-620 colon was > 100 µM in each case.
On to `NS(=O)(=O)c1ccc(CCN=C=S)cc1`, for which the GI50 in the test on A498 renal is 2.21 µM; in the test on SF-268 CNS, 2.83 µM; with U251 CNS, 1.94 µM; in the test with IGROV1 ovarian it was 2.1 µM; in the test with NCI-H460 lung it was 3.53 µM; with UO-31 renal it was 1.53 µM. Besides, the GI50 in the test with SF-539 CNS is 1.87 µM; in the test with M14 melanoma, 2.09 µM; with EKVX NSCLC, 2.35 µM; with SW-620 colon, 1.84 µM. The TGI was 7.99 µM in the test on A498 renal; 10.1 µM in the test with SF-268 CNS; 4.13 µM in the test on U251 CNS; 4.96 µM in the test with IGROV1 ovarian; 13.1 µM in the test with NCI-H460 lung; 2.87 µM with UO-31 renal. Also, the TGI came to 3.85 µM with SF-539 CNS, 4.51 µM in the test with M14 melanoma, 6.23 µM in the test on EKVX NSCLC and 3.96 µM in the test on SW-620 colon.
Regarding `CCOC(=O)c1c(C(F)(F)F)n([O-])c2ccc(OC)cc2[n+]1=O`, the GI50 was 11.3 µM in the test on A498 renal; 4.65 µM in the test on SF-268 CNS; 4.31 µM in the test on U251 CNS; 4.69 µM in the test with IGROV1 ovarian; 3.8 µM in the test with NCI-H460 lung; 6.68 µM with UO-31 renal. The GI50 is 7.97 µM with SF-539 CNS, 3.75 µM in the test on M14 melanoma, 3.67 µM with EKVX NSCLC and 5.79 µM with SW-620 colon. The TGI with A498 renal is 33.7 µM; in the test with SF-268 CNS it was 72.5 µM; in the test on U251 CNS, > 100 µM; in the test on IGROV1 ovarian it was 26.5 µM; in the test on NCI-H460 lung it was 15.7 µM; in the test with UO-31 renal, > 100 µM. Also, the TGI is 27 µM in the test with SF-539 CNS, 24.6 µM in the test with M14 melanoma, 60.5 µM with EKVX NSCLC and > 100 µM in the test on SW-620 colon.
For `CCOC(=O)/C(=C/c1ccc(C#N)cc1)N(CC)CC`, the TGI in the test with A498 renal, in the test on SF-268 CNS, in the test on U251 CNS, in the test with IGROV1 ovarian, with NCI-H460 lung and with UO-31 renal was > 100 µM in each case. Further, the TGI in the test on SF-539 CNS, in the test with M14 melanoma, in the test on EKVX NSCLC and in the test with SW-620 colon was > 100 µM each time.
Regarding `CC1=C(C(=O)Nc2ccc(Cl)c(Cl)c2)C(c2ccco2)C(C(=O)Nc2ccc(Cl)c(Cl)c2)=C(C)N1`, the TGI in the test with A498 renal is 26.6 µM; in the test with SF-268 CNS, 23.9 µM; with U251 CNS, 23.9 µM; in the test with IGROV1 ovarian it was 32.6 µM; with NCI-H460 lung, 31.6 µM; with UO-31 renal, 21.7 µM. Further, the TGI in the test on SF-539 CNS came to 27.7 µM; in the test on M14 melanoma, 18.4 µM; in the test with EKVX NSCLC, 29.5 µM; with SW-620 colon, 28.3 µM.
In the case of `COC(=O)C1=C(CO)C2C=CC1C2` (centres undefined), the TGI in the test on A498 renal, in the test on SF-268 CNS, in the test on U251 CNS, with IGROV1 ovarian, with NCI-H460 lung and in the test with UO-31 renal was > 100 µM throughout. In addition, the TGI in the test on SF-539 CNS, with M14 melanoma, in the test on EKVX NSCLC and in the test with SW-620 colon was > 100 µM throughout.
Take `CCCCCCCC[N+](C)(CCCCCCCC)CCCCCCCC`: the GI50 in the test with A498 renal is 0.563 µM; in the test with SF-268 CNS, 0.441 µM; with U251 CNS, 0.324 µM; in the test on IGROV1 ovarian, 0.347 µM; with NCI-H460 lung, 0.43 µM; with UO-31 renal, 0.465 µM. In addition, the GI50 in the test with SF-539 CNS was 0.513 µM; in the test on M14 melanoma, 0.388 µM; in the test with EKVX NSCLC it was 0.19 µM; in the test with SW-620 colon, 0.338 µM. The TGI was determined as 1.54 µM in the test on A498 renal; 1.53 µM in the test on SF-268 CNS; 1.31 µM in the test on U251 CNS; 1.91 µM in the test on IGROV1 ovarian; 1.45 µM in the test with NCI-H460 lung; 1.62 µM in the test on UO-31 renal. The TGI in the test with SF-539 CNS turned out to be 1.66 µM; in the test with M14 melanoma it was 1.63 µM; with EKVX NSCLC it was 0.788 µM; in the test with SW-620 colon it was 1.46 µM.
With `CC(C)(C)c1ccc(C(O)c2ccc(C(C)(C)C)cc2)cc1`, the TGI in the test on A498 renal was determined as 32.9 µM; in the test on SF-268 CNS, 34.6 µM; with U251 CNS it was 25.8 µM; in the test on IGROV1 ovarian, 30.6 µM; in the test with NCI-H460 lung, 26.6 µM; in the test on UO-31 renal, 29.7 µM. Also, the TGI in the test on SF-539 CNS came to 31.5 µM; with M14 melanoma, 28.7 µM; in the test with EKVX NSCLC, 32.3 µM; with SW-620 colon, 27.9 µM.
